Test results taken from paper PMC12363342, “Investigating the N-terminal linker histone H1 subtypes as substrates for JmjC lysine demethylases” (RSC Chemical Biology, 2025).
Square brackets hold non-standard residues; d marks the D form. Ends that are not written are not given here. Lys(Me3) = C[N+](C)(C)CCCC[C@H](N)C(=O)O

Experiments:
[1] = system: KDM4A; assay: LC-MS demethylation activity assay, KDM4A; format: biochemical, human; conditions: 10 μM FAS, 100 μM LAA, 20 μM 2OG, room temperature; for substrate conversion (demethylation) by KDM4A: 2 μM KDM4A, 10 μM peptide, HEPES pH 7.5, 2 h; for KDM4A demethylation activity, T: 2 μM KDM, 10 μM H1/H3 peptide, 50 mM HEPES pH 7.5, 2 h, T (tri-) initial methylation state
Method in brief: (§1)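 His6-tagged recombinant catalytic domains (2.0 μM) were used: KDM4A M1–L359, KDM4D M1–L359 and KDM3C L2157–L2500 from E. coli, and KDM5D M1–D775 from Sf9. Each acted on 10 μM H1 peptide in 50 mM HEPES pH 7.5 with 10 μM Fe(II), 100 μM ascorbate and 20 μM 2OG for 2 h at room temperature. Reactions were formic acid-quenched and analysed by LC-MS.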

[2] = system: KDM3B; assay: LC-MS demethylation activity assay, KDM3B; format: biochemical, human; conditions: 2 μM KDM, 10 μM H1/H3 peptide, 10 μM FAS, 100 μM LAA, 20 μM 2OG, 50 mM HEPES pH 7.5, 2 h, room temperature, T (tri-) initial methylation state
Method in brief: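 H1 isoform peptides (10 μM) were incubated 2 h at room temperature with 2 μM recombinant N-terminally His6-tagged catalytic domains in 50 mM HEPES pH 7.5 containing FAS (10 μM), ascorbate (100 μM) and 2OG (20 μM). Reactions were quenched with formic acid (1% final), and demethylation was analysed by LC-MS (Q-TOF).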

[3] = target: T1, KDM4D (Homo sapiens, UniProt Q6B0I6); assay: LC-MS demethylation activity assay, KDM4D; format: biochemical; conditions: room temperature; for KDM4D demethylation activity, T: 2 μM KDM, 10 μM H1/H3 peptide, 50 mM HEPES pH 7.5, 2 h, T (tri-) initial methylation state; for KDM4D demethylation activity, T / substrate conversion (demethylation) by KDM4D: 10 μM FAS, 100 μM LAA, 20 μM 2OG; for substrate conversion (demethylation) by KDM4D / di-methylated product formed by KDM4D / mono-methylated product formed by KDM4D: 2 μM KDM4D, 10 μM peptide; for substrate conversion (demethylation) by KDM4D: HEPES pH 7.5, 2 h; for di-methylated product formed by KDM4D / mono-methylated product formed by KDM4D: standard conditions, 2 h
T1 construct: KDM4AM1-L359,[38]; KDM4DM1-L359,[39]; KDM4EM1-R336,[30]; His6 (N); made in house; host or cells: Escherichia coli
T1 sequence (Q6B0I6 1-359): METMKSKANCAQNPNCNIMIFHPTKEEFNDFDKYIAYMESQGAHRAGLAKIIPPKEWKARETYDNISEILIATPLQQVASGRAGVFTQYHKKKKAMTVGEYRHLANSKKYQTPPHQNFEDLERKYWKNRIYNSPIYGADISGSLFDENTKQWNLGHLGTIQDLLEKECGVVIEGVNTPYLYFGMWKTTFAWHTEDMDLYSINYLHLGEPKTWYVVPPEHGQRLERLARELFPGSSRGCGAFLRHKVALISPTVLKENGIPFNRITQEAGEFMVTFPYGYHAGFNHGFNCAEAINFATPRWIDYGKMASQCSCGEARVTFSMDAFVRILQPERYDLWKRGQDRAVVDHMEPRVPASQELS
Method in brief: as §1

| Substance | substrate conversion (demethylation) by KDM4A [1] [%] | KDM4A demethylation activity, T [1] | KDM3B demethylation activity, T [2] | KDM4D demethylation activity, T [3] | substrate conversion (demethylation) by KDM4D [3] [%] | di-methylated product formed by KDM4D [3] [%] | mono-methylated product formed by KDM4D [3] [%] |
| --- | --- | --- | --- | --- | --- | --- | --- |
| KKKAA[Lys(Me3)]KAGGTPRKA [Peptide H1.2K25me3, 15-mer linker histone H1.2 residues 20-34 peptide, tri-methylated K25] | ~45 | ● [green] (green dots indicate good demethylation (>50% conversion)) | ● [red] | ● [red] | – | – | – |
| KKKA[Lys(Me3)]KAGATAGKRK [Peptide H1.3K24me3, 15-mer linker histone H1.3 residues 20-34 peptide, tri-methylated K24] | ~36 | ● [green] (green dots indicate good demethylation (>50% conversion)) | ● [red] | ● [green] (green dots indicate good demethylation (>50% conversion)) | ~68 | ~30 | ~40 |
| KKKAR[Lys(Me3)]SAGAAKRKA [Peptide H1.4K25me3, 15-mer linker histone H1.4 residues 20-34 peptide, tri-methylated K25] | ~87 | ● [green] (green dots indicate good demethylation (>50% conversion)) | ● [red] | ● [green] (green dots indicate good demethylation (>50% conversion)) | ~92 | ~30 | ~62 |
| KKKAAK[Lys(Me3)]AGGTPRKA [Peptide H1.2K26me3, 15-mer linker histone H1.2 residues 20-34 peptide, tri-methylated K26] | ~51 | ● [yellow] (yellow dots indicate moderate demethylation (<50% conversion)) | ● [red] | ● [green] (green dots indicate good demethylation (>50% conversion)) | ~70 | ~30 | ~40 |
| KKKATK[Lys(Me3)]AAGAGAAK [Peptide H1.5K26me3, 15-mer linker histone H1.5 residues 20-34 peptide, tri-methylated K26] | < 10 | ● [green] (green dots indicate good demethylation (>50% conversion)) | ● [red] | ● [green] (green dots indicate good demethylation (>50% conversion)) | – | – | – |
